Source: PubChem BioAssay AID330 (DTP/NCI, 2004)
Values joined by “and” are separate entries in the source; they are usually repeats but may differ in a detail not shown here. Equal values may be shown once. Inconclusive results and toxic doses are left out. How the source made its calls: active means survival T/C of 150% or more; inactive means T/C below 125% in these data.

Test system: P388 leukemia ip, CD2F1 mice, survival T/C
Test: NCI In Vivo Anticancer Drug Screen. Data for tumor model P388 Leukemia (intraperitoneal) in CD2F1 (CDF1) mice
Conditions: endpoint: median survival time, higher = longer survival
Procedure, shortened: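 Mice carrying the transplanted tumor received test compound or vehicle. Survival was recorded in each group, and the value is the treated-group measurement divided by that of the vehicle-treated control group.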

[1] = dose: 60.0 mg/kg/injection, schedule: Q01DX005 (ip), vehicle: saline with Tween-80
[2] = dose: 50.0 mg/kg/injection, schedule: Q01DX005 (ip), vehicle: saline with Tween-80
[3] = dose: 100.0 mg/kg/injection, schedule: Q01DX005 (ip), vehicle: saline with Tween-80
[4] = dose: 200.0 mg/kg/injection, schedule: Q01DX005 (ip), vehicle: saline with Tween-80
[5] = dose: 50.0 mg/kg/injection, schedule: Q01DX005 (ip), vehicle: Klucel (hydroxypropylcellulose) (HPC)
[6] = dose: 100.0 mg/kg/injection, schedule: Q01DX009 (ip), vehicle: saline with Tween-80
[7] = dose: 50.0 mg/kg/injection, schedule: Q01DX009 (ip), vehicle: Klucel (hydroxypropylcellulose) (HPC)
[8] = dose: 100.0 mg/kg/injection, schedule: Q01DX009 (ip), vehicle: Klucel (hydroxypropylcellulose) (HPC)
[9] = dose: 200.0 mg/kg/injection, schedule: Q01DX009 (ip), vehicle: Klucel (hydroxypropylcellulose) (HPC)
[10] = dose: 100.0 mg/kg/injection, schedule: Q01DX005 (ip), vehicle: Klucel (hydroxypropylcellulose) (HPC)
[11] = dose: 200.0 mg/kg/injection, schedule: Q01DX005 (ip), vehicle: Klucel (hydroxypropylcellulose) (HPC)
[12] = dose: 25.0 mg/kg/injection, schedule: Q01DX009 (ip), vehicle: Klucel (hydroxypropylcellulose) (HPC)
[13] = dose: 100.0 mg/kg/injection, schedule: Q04DX002 (ip), vehicle: saline
[14] = dose: 400.0 mg/kg/injection, schedule: Q04DX002 (ip), vehicle: saline
[15] = dose: 50.0 mg/kg/injection, schedule: Q01DX005 (ip), vehicle: saline

Measured: T/C

N#Cc1c(-c2ccc(Cl)cc2)cn2c1[nH]c(=O)c1c3c(sc12)CCCC3
inactive: [1] 87 % of control | dose: 120.0 mg/kg/injection, schedule: Q01DX005 (ip), vehicle: saline with Tween-80 86 % of control

O=C1OCC2C(=O)OCC12 (stereo unspecified)
inactive: dose: 4.0 mg/kg/injection, schedule: Q01DX009 (ip), vehicle: saline with Tween-80 113 % of control and 87 % of control | dose: 8.0 mg/kg/injection, schedule: Q01DX009 (ip), vehicle: saline with Tween-80 108 % of control and 109 % of control and 96 % of control | dose: 16.0 mg/kg/injection, schedule: Q01DX009 (ip), vehicle: saline with Tween-80 100 % of control and 109 % of control and 118 % of control | dose: 32.0 mg/kg/injection, schedule: Q01DX009 (ip), vehicle: saline with Tween-80 104 % of control and 124 % of control and 95 % of control | dose: 50.0 mg/kg/injection, schedule: Q04DX003 (ip), vehicle: saline with Tween-80 99 % of control | dose: 64.0 mg/kg/injection, schedule: Q01DX009 (ip), vehicle: saline with Tween-80 100 % of control and 109 % of control and 124 % of control | dose: 100.0 mg/kg/injection, schedule: Q04DX003 (ip), vehicle: saline with Tween-80 102 % of control | dose: 128.0 mg/kg/injection, schedule: Q01DX009 (ip), vehicle: saline with Tween-80 113 % of control | dose: 200.0 mg/kg/injection, schedule: Q04DX003 (ip), vehicle: saline with Tween-80 105 % of control | dose: 400.0 mg/kg/injection, schedule: Q04DX003 (ip), vehicle: saline with Tween-80 99 % of control

O=C(NN(CCO)CCO)c1ccccc1
inactive: [2] 100 % of control | [3] 105 % of control | [4] 100 % of control

CN1c2ccccc2C(=O)Nc2cnc(Cl)nc21
inactive: dose: 25.0 mg/kg/injection, schedule: Q01DX005 (ip), vehicle: Klucel (hydroxypropylcellulose) (HPC) 94 % of control | [5] 108 % of control

O=c1[nH]c2ccccc2c(=O)n1-c1ccccc1
inactive: [6] 101 % of control and 109 % of control | dose: 200.0 mg/kg/injection, schedule: Q01DX009 (ip), vehicle: saline with Tween-80 96 % of control | dose: 400.0 mg/kg/injection, schedule: Q01DX009 (ip), vehicle: saline with Tween-80 113 % of control and 95 % of control

O=C(Cc1ccccc1)c1ccc(F)cc1
inactive: [7] 98 % of control | [8] 100 % of control | [9] 99 % of control

Cc1nnc(NC(=O)c2cc(=O)c3cc(Cl)ccc3o2)s1
inactive: [5] 100 % of control | [10] 106 % of control | [11] 100 % of control

COC1=CC2C3C(=O)NC(=O)C3C1C1CC(C#N)C21OC (stereo unspecified)
inactive: dose: 100.0 mg/kg/injection, schedule: Q01DX001 (ip), vehicle: saline with Tween-80 104 % of control | dose: 200.0 mg/kg/injection, schedule: Q01DX001 (ip), vehicle: saline with Tween-80 114 % of control | dose: 400.0 mg/kg/injection, schedule: Q01DX001 (ip), vehicle: saline with Tween-80 107 % of control

Nc1nnc(-c2ccccc2)s1
inactive: dose: 12.5 mg/kg/injection, schedule: Q01DX009 (ip), vehicle: Klucel (hydroxypropylcellulose) (HPC) 114 % of control | [12] 107 % of control | dose: 50.0 mg/kg/injection, schedule: Q01DX008 (ip), vehicle: Klucel (hydroxypropylcellulose) (HPC) 109 % of control | [7] 114 % of control | dose: 100.0 mg/kg/injection, schedule: Q01DX008 (ip), vehicle: Klucel (hydroxypropylcellulose) (HPC) 109 % of control | dose: 200.0 mg/kg/injection, schedule: Q01DX008 (ip), vehicle: Klucel (hydroxypropylcellulose) (HPC) 114 % of control

CCCCCC1(CCBr)C(=O)NC(=O)NC1=O
inactive: [5] 100 % of control | [10] 102 % of control | [11] 108 % of control

COC(=O)CC1(C(=O)OC)c2ccc3c(C(=O)C(F)(F)F)cccc3c2N2CCCC21 (stereo unspecified)
inactive: [13] 101 % of control | dose: 200.0 mg/kg/injection, schedule: Q04DX002 (ip), vehicle: saline 102 % of control | [14] 102 % of control

Nc1nn2nnnc2c2ccccc12
inactive: dose: 25.0 mg/kg/injection, schedule: Q04DX002 (ip), vehicle: saline 107 % of control | dose: 50.0 mg/kg/injection, schedule: Q04DX002 (ip), vehicle: saline 96 % of control | [13] 101 % of control and 89 % of control | [14] 92 % of control

CCCCCCCCC1(OCCCS(=O)(=O)O)COc2ccccc2OCCOCCOc2ccccc2OC1
inactive: dose: 30.0 mg/kg/injection, schedule: Q01DX005 (ip), vehicle: saline with Tween-80 96 % of control | [1] 94 % of control

c1ccc2c(c1)NC(c1ccc3c(c1)Sc1cc(C4Nc5ccccc5N4)ccc1O3)N2
inactive: [2] 95 % of control | [3] 102 % of control | [4] 100 % of control

Oc1ccc(C(c2cc3c(cc2O)OCO3)N2CCN(C(c3ccc(O)cc3)c3cc4c(cc3O)OCO4)CC2)cc1 (stereo unspecified)
inactive: dose: 60.0 mg/kg/injection, schedule: Q01DX005 (ip), vehicle: Klucel (hydroxypropylcellulose) (HPC) 104 % of control | dose: 120.0 mg/kg/injection, schedule: Q01DX005 (ip), vehicle: Klucel (hydroxypropylcellulose) (HPC) 103 % of control | dose: 240.0 mg/kg/injection, schedule: Q01DX005 (ip), vehicle: Klucel (hydroxypropylcellulose) (HPC) 100 % of control

CCOC(=O)C1CC(c2ccccc2)=NN1c1ccccc1 (stereo unspecified)
inactive: [12] 96 % of control | [7] 96 % of control | [8] 99 % of control | [9] 99 % of control | dose: 400.0 mg/kg/injection, schedule: Q01DX009 (ip), vehicle: Klucel (hydroxypropylcellulose) (HPC) 96 % of control

CCCCN(CCCC)C(=N)OC
inactive: dose: 12.5 mg/kg/injection, schedule: Q01DX005 (ip), vehicle: suspension in saline 100 % of control | dose: 25.0 mg/kg/injection, schedule: Q01DX005 (ip), vehicle: suspension in saline 108 % of control | [15] 99 % of control | dose: 50.0 mg/kg/injection, schedule: Q01DX005 (ip), vehicle: suspension in saline 117 % of control

CC(=O)NO
inactive: dose: 50.0 mg/kg/injection, schedule: Q01DX009 (ip), vehicle: saline 104 % of control | dose: 100.0 mg/kg/injection, schedule: Q01DX009 (ip), vehicle: saline 96 % of control | dose: 200.0 mg/kg/injection, schedule: Q01DX009 (ip), vehicle: saline 103 % of control

COc1ccccc1C1OCC(C)(C)N1C (stereo unspecified)
inactive: dose: 18.75 mg/kg/injection, schedule: Q01DX001 (ip), vehicle: saline sonified 100 % of control | dose: 37.5 mg/kg/injection, schedule: Q01DX001 (ip), vehicle: saline sonified 95 % of control | dose: 75.0 mg/kg/injection, schedule: Q01DX001 (ip), vehicle: saline sonified 110 % of control | dose: 75.0 mg/kg/injection, schedule: Q04DX003 (ip), vehicle: saline with Tween-80 105 % of control | dose: 150.0 mg/kg/injection, schedule: Q04DX003 (ip), vehicle: saline with Tween-80 105 % of control | dose: 300.0 mg/kg/injection, schedule: Q04DX003 (ip), vehicle: saline with Tween-80 100 % of control

O=C1C(=C2C=CN(CCCN3CCCC3)C=C2)C(=O)c2ccccc21
inactive: [7] 90 % of control | [8] 96 % of control | [9] 95 % of control

CC1(C(=O)O)CCC2(C)CCC3(C)C(=CC(=O)C4C5(C)CCC(OC6OC(C(=O)O)C(O)C(O)C6OC6OC(C(=O)O)C(O)C(O)C6O)C(C)(C)C5CCC43C)C2C1 (stereo unspecified)
inactive: [15] 99 % of control | dose: 100.0 mg/kg/injection, schedule: Q01DX005 (ip), vehicle: saline 97 % of control | dose: 200.0 mg/kg/injection, schedule: Q01DX005 (ip), vehicle: saline 103 % of control

COc1cc(NCCCN=C(N)N)c2ncccc2c1
inactive: dose: 1.56 mg/kg/injection, schedule: Q01DX005 (ip), vehicle: saline with Tween-80 99 % of control | dose: 3.13 mg/kg/injection, schedule: Q01DX005 (ip), vehicle: saline with Tween-80 98 % of control | dose: 6.25 mg/kg/injection, schedule: Q01DX005 (ip), vehicle: saline with Tween-80 102 % of control and 92 % of control

[I][Ga]([I])[I]
inactive: dose: 25.0 mg/kg/injection, schedule: Q01DX009 (ip), vehicle: saline with Tween-80 116 % of control | dose: 50.0 mg/kg/injection, schedule: Q01DX009 (ip), vehicle: saline with Tween-80 111 % of control | [6] 100 % of control | dose: 100.0 mg/kg/injection, schedule: Q04DX003 (ip), vehicle: saline sonified 100 % of control

O=C1NC(=O)C(=Cc2ccc(Cl)cc2)C(=O)N1
inactive: [5] 114 % of control | [10] 116 % of control
